Laboratory results reported in publication PMC7956587, “Molecular Docking Studies and Biological Evaluation of Berberine–Benzothiazole Derivatives as an Anti-Influenza Agent via Blocking of Neuraminidase” (International Journal of Molecular Sciences, 2021).
Like-named read-outs stand apart in the source and are kept apart here.

Experiments:
[1] = biological target: influenza virus neuraminidase (Influenza A virus, UniProt P03468); assay: Viral neuraminidase inhibition assay (NA-Star kit); assay type: biochemical, influenza A/PR/8/34 virus; settings: for NA inhibition activity (in words): compared with oseltamivir, Figure 1; for activity at 0.1 µg/mL: at 0.1 μg/mL; for activity at 0.1 µg/mL / activity at 1 µg/mL / activity at 10 µg/mL: (Treatment/Virus) × 100, remaining activity; for activity at 1 µg/mL: at 1 μg/mL; for activity at 10 µg/mL: at 10 μg/mL
[2] = test system: influenza A virus A/PR/8/34 (H1N1); assay: In vitro antiviral bioassay (CPE reduction, SRB) in MDCK cells; assay type: cell-based; settings: for IC50: Influenza A virus, MDCK, 48 h; for TI A/PR/8/34 (H1N1): Therapeutic index, TI = CC50/IC50
[3] = test system: influenza B virus B/Maryland/1/59; assay: as above; assay type: cell-based; settings: for IC50: Influenza B virus, read-out: IC50 B/MARYLAND/1/59; for TI B/MARYLAND/1/59: Therapeutic index, TI = CC50/IC50
[4] = test system: influenza A virus A/Vic/3/75 (H3N2); assay: as above; assay type: cell-based; settings: for IC50: Influenza A virus, H3N2, MDCK, 48 h; for TI A/VIC/3/75 (H3N2): Therapeutic index, TI = CC50/IC50
in vitro = settings: dog
MDCK cells = settings: dog, 48 h
[5] = test system: influenza B virus B/Lee/40; assay: In vitro antiviral bioassay (CPE reduction, SRB) in MDCK cells; assay type: cell-based; settings: for IC50: Influenza B virus; for TI B/LEE/40: Therapeutic index, TI = CC50/IC50
[6] = Cytotoxicity on MDCK cells, SRB method; settings: dog
[7] = MDCK cells, 50 TCID50, 48 h, mean ± S.D., triplicate

influenza virus neuraminidase, sequence (P03468 whole entry, looked up): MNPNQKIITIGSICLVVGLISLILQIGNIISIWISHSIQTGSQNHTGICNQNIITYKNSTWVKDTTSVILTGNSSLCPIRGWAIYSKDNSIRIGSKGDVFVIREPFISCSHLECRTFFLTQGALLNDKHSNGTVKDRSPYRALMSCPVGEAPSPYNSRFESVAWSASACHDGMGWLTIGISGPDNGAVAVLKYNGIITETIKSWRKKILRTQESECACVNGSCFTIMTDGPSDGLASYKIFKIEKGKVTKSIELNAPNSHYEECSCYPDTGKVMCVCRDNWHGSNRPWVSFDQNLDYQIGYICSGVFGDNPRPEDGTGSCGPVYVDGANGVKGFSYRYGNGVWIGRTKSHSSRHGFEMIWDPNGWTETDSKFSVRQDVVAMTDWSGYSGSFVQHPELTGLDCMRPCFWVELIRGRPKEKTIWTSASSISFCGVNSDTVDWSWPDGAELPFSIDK

| SMILES | NA inhibition activity (in words) [1] | IC50 [2] [µg/mL] | TI A/PR/8/34 (H1N1) [2] | IC50 [3, 7] [µg/mL] | TI B/MARYLAND/1/59 [3] | IC50 [4] [µg/mL] | TI A/VIC/3/75 (H3N2) [4] | CC50 at 48 h (in vitro) [µg/mL] | CC50 (MDCK cells) [µg/mL] | IC50 [5, 7] [µg/mL] | TI B/LEE/40 [5] | activity at 0.1 µg/mL [1] [%] | activity at 1 µg/mL [1] [%] | activity at 10 µg/mL [1] [%] | IC50 ([3]; MDCK, 48 h) [µg/mL] | CC50 at 48 h [6] [µg/mL] | IC50 A/PR/8/34 (H1N1) [2] | IC50 B/MARYLAND/1/59 [3, 7] | IC50 A/VIC/3/75 (H3N2) [4] | IC50 B/LEE/40 [5, 7] |
| --- | --- | --- | --- | --- | --- | --- | --- | --- | --- | --- | --- | --- | --- | --- | --- | --- | --- | --- | --- | --- |
| COc1ccc2cc3[n+](cc2c1OCCCCCNc1nc2ccc(C)cc2s1)CCc1cc2c(cc1-3)OCO2 [BBD 4] | moderate NA inhibition activity | 37.3 ± 0.669 | 8.655 | 41.6 ± 0.67 | 7.762 | 55 ± 0.87 | 5.862 | > 100 | 322.6 ± 2.543 | 43.2 ± 0.86 | 7.406 |  |  |  |  |  |  |  |  |  |
| COc1ccc2cc3[n+](cc2c1OCCCCCNc1nc2ccccc2s1)CCc1cc2c(cc1-3)OCO2 [BBD 1] |  | 25.2 ± 0.154 | 17.32 | 55.1 ± 2.65 | 7.924 | 45.1 ± 1.75 | 9.672 | > 100 | 436.7 ± 2.635 | 55.5 ± 3.77 | 7.874 | 40.3 | 30.4 | 15.6 |  |  |  |  |  |  |
| COc1ccc2cc3[n+](cc2c1OCCCCCNc1nc2ccc(C(F)(F)F)cc2s1)CCc1cc2c(cc1-3)OCO2 [BBD 12] |  | 28.7 ± 0.514 | 10.52 | 66.2 ± 1.82 | 4.565 | 44.6 ± 1.65 | 6.784 | > 100 | 302.3 ± 2.446 | 67.7 ± 1.52 | 4.468 |  |  |  |  |  |  |  |  |  |
| CCOC(=O)C1=C[C@@H](OC(CC)CC)[C@H](NC(C)=O)[C@@H](N)C1 [OSELTAMIVIR, Oseltamivir phosphate, reference compound] |  | 11.6 ± 1.43 | 17.75 |  | 4.64 | 22.1 ± 1.07 | 9.27 |  |  | 55.9 ± 1.13 | 3.67 | 39.1 | 29.1 | 18.3 | 44.2 ± 1.83 | > 100 |  |  |  |  |
| COc1ccc2cc3[n+](cc2c1OCCCCCNc1nc2ccc(C(=O)O)cc2s1)CCc1cc2c(cc1-3)OCO2 [BBD 3] |  | 35.9 ± 0.659 | 10.65 | 56.4 ± 1.06 | 6.784 | 60.7 ± 1.06 | 6.303 | > 100 | 382.9 ± 2.964 | 53.9 ± 1.36 | 7.105 |  |  |  |  |  |  |  |  |  |
| COc1ccc2cc3[n+](cc2c1OCCCCCNc1nc2ccc([N+](=O)[O-])cc2s1)CCc1cc2c(cc1-3)OCO2 [BBD 2] |  | 30.9 ± 0.619 | 11.01 | 65.3 ± 1.88 | 5.212 | 52.2 ± 2.07 | 6.525 | > 100 | 340.5 ± 1.180 | 61.7 ± 1.65 | 5.516 |  |  |  |  |  |  |  |  |  |
| COc1ccc2cc3[n+](cc2c1OCCCCCNc1nc2c(F)cc(F)cc2s1)CCc1cc2c(cc1-3)OCO2 [BBD 11] |  | 27.2 ± 0.394 | 17.19 | 98.3 ± 2.21 | 4.75 | 48.4 ± 2.2 | 9.655 | > 100 | 467.7 ± 2.647 | 85.1 ± 3.74 | 5.494 | 40.8 | 33.2 | 18.4 |  |  |  |  |  |  |
| CCOc1ccc2nc(NCCCCCOc3c(OC)ccc4cc5[n+](cc34)CCc3cc4c(cc3-5)OCO4)sc2c1 [BBD 6] |  | 42.8 ± 0.478 | 5.176 | 36.9 ± 2.15 | 6.003 | 60.4 ± 1.35 | 3.663 | > 100 | 221.4 ± 1.180 | 38.8 ± 2.08 | 5.712 |  |  |  |  |  |  |  |  |  |
| COc1ccc2cc3[n+](cc2c1OCCCCCNc1nc2ccc(F)cc2s1)CCc1cc2c(cc1-3)OCO2 [BBD 10] |  | 30.5 ± 0.761 | 10.18 | 75.7 ± 2.06 | 4.100 | 49.9 ± 1.31 | 6.228 | > 100 | 310.6 ± 1.629 | 64.6 ± 1.24 | 4.812 |  |  |  |  |  |  |  |  |  |
| COc1ccc2cc3[n+](cc2c1OCCCCCNc1nc2ccc(I)cc2s1)CCc1cc2c(cc1-3)OCO2 [BBD 9] |  | 54.5 ± 1.75 | 5.547 | 78.5 ± 2.31 | 3.851 | 54.2 ± 2.09 | 5.585 | > 100 | 302.5 ± 1.771 | 69.8 ± 2.57 | 4.331 |  |  |  |  |  |  |  |  |  |
| COc1ccc2cc3[n+](cc2c1OC)CCc1cc2c(cc1-3)OCO2 [BERBERINE, Berberine] |  | 36.1 ± 1.57 | 1.808 |  | 1.196 | 41.6 ± 2.04 | 1.571 |  |  | 60.8 ± 1.86 | 1.07 |  |  |  | 54.6 ± 1.45 | 65.3 ± 1.92 |  |  |  |  |
| COc1ccc2nc(NCCCCCOc3c(OC)ccc4cc5[n+](cc34)CCc3cc4c(cc3-5)OCO4)sc2c1 [BBD 5] | moderate NA inhibition activity | 39.54 ± 0.326 | 7.749 | 44.3 ± 2.06 | 6.921 | 57.3 ± 2.13 | 5.343 | > 100 | 306.4 ± 3.612 | 36.9 ± 1.52 | 8.294 |  |  |  |  |  |  |  |  |  |
| COc1ccc2cc3[n+](cc2c1OCCCCCNc1nc2ccc(Cl)cc2s1)CCc1cc2c(cc1-3)OCO2 [BBD 7] |  | 24.3 ± 0.419 | 19.08 | 88.1 ± 1.16 | 5.259 | 38.8 ± 2.51 | 11.94 | > 100 | 463.5 ± 3.386 | 81.4 ± 3.01 |  | 37.4 | 32.1 | 14.5 |  |  |  |  |  |  |
| COc1ccc2cc3[n+](cc2c1OCCCCCNc1nc2ccc(C#N)cc2s1)CCc1cc2c(cc1-3)OCO2 [BBD 13] |  |  |  |  |  |  |  | 45.1 ± 0.864 |  |  |  |  |  |  |  |  | did not show any activity | did not show any activity | did not show any activity | did not show any activity |
| COc1ccc2cc3[n+](cc2c1OCCCCCNNc1nc2ccccc2s1)CCc1cc2c(cc1-3)OCO2 [BBD 14] |  | 40.3 ± 0.725 | 7.543 | 73.4 ± 2.17 | 4.143 | 56.3 ± 2.06 | 5.403 | > 100 | 304.3 ± 1.261 | 70.3 ± 2.24 | 4.327 |  |  |  |  |  |  |  |  |  |
| COc1ccc2cc3[n+](cc2c1OCCCCCNc1nc2ccc(Br)cc2s1)CCc1cc2c(cc1-3)OCO2 [BBD 8] |  | 68.02 ± 0.67 | 4.835 | 81.2 ± 0.91 | 4.052 | 70.7 ± 0.94 | 4.65 | > 100 | 328.9 ± 1.065 | 74.8 ± 1.83 | 4.395 |  |  |  |  |  |  |  |  |  |
